Assay results reported in paper PMC11788587, “Validating Low‐Dose Iohexol as a Marker for Glomerular Filtration Rate by In Vitro and In Vivo Studies” (Clinical and Translational Science, 2025).

What was measured:
[1] = system: P‐glycoprotein; parameters: method as in ref 16 Supawat et al.; conditions: human cancer cell lines; not statistically significant; ref 16 Supawat et al.; cited from earlier work
[2] = target: T1, hMATE1 (Homo sapiens, UniProt Q96FL8); experiment: Inhibition of hMATE1-mediated MPP+ uptake, stably transfected 293 cells; assay type: cell-based; conditions: substrate 3 µM MPP+, median (95% CI)
T1 construct: expressed in transfected cells; host or cells: HEK-293 (293) cells, pEBTetD plasmid, doxycycline-induced
T1 sequence (Q96FL8 1-570): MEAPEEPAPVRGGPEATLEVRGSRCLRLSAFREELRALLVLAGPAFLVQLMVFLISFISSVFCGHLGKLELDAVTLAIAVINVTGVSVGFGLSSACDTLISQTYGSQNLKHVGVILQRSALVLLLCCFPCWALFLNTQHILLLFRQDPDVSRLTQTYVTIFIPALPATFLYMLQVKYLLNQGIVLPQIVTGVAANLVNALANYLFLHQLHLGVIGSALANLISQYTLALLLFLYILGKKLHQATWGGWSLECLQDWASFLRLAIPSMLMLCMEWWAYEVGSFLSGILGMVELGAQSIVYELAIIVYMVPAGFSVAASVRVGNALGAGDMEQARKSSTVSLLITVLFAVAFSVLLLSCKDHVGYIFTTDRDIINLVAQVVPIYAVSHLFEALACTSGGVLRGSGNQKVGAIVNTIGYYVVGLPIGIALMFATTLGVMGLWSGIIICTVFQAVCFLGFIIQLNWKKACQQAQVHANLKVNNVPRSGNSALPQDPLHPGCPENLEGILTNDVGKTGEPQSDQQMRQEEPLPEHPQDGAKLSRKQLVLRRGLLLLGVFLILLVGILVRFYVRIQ
Text: We characterized the inhibitory potential of iohexol on major drug transporters recommended by regulatory agencies, which were previously assessed in a clinical transporter phenotyping cocktail study. These transporters include hOAT1, hOAT3, hOCT1, hOCT2, hMATE1, hMATE2K, human organic anion transporter polypeptides (hOATP)1B1, hOATP1B3, and human multidrug resistance protein (hMDR)1. Additionally, we investigated whether iohexol is a substrate for any of the renal transporters among these, including hOAT1/3, hOCT1/2, and hMATE1/2K. Cell‐based uptake assays were used to assess the activities of hOAT1/3, hOCT1/2, hMATE1/2K, and hOATP1B1/1B3. Inside‐out membrane vesicle uptake assays were used to evaluate the activity of hMDR1.
To determine the maximal inhibitory potential of iohexol, intracellular accumulation of a standard substrate was measured with and without the clinically relevant highest concentrations of iohexol. Control inhibitors were tested in each experiment.
In all subsequent in vitro studies, control experiments were conducted to validate the results. These included positive controls for substrates and inhibitors, as well as cells either without transporter expression or transfected with an empty vector, and control vesicles. Each condition, including cells or vesicles with the transporter and their respective controls, was analyzed in at least three replicates. For detailed information on materials, methods, and data analysis techniques used, refer to the Supporting Information. […]
R version 4.2.1 (R Foundation for Statistical Computing, Vienna, Austria) was used for statistical evaluations and data visualization. The data analysis approach for the in vitro study was detailed by Hsin CH et al..^1 In brief, for transport assays, the initial uptake rate was calculated by normalizing the substrate concentration to both the protein concentration and the incubation time for each dish or well. The transporter-mediated uptake rate (net uptake) was determined by performing an element-wise subtraction of uptake rates from different conditions. […]

Inhibitory effect (% reduction of specific activity) ([2]; 20 mM iohexol): no notable inhibitory effects
inhibition at 1000 µM ([2]; HEK293, 1 mM iohexol, read-out: Inhibitory effect (% reduction of specific activity)): 5.4%
inhibition at 20000 µM ([2]; HEK293, 20 mM iohexol, read-out: Inhibitory effect (% reduction of specific activity)): 12%
SMILES: CC(=O)N(CC(O)CO)c1c(I)c(C(=O)NCC(O)CO)c(I)c(C(=O)NCC(O)CO)c1I (stereo not shown) [iohexol]
Inhibitory effect on P-glycoprotein [1]: mild inhibitory effect
